# Measured values reported in patent publication US20240025906A1 (NEURON23, INC., priority 2022, published 2024).
# Where two headings read alike, the source gives them in different places.
# Molecular target: T1, TYK2 JH2 (Homo sapiens, UniProt P29597)
# T1 construct: purchased DiscoverX (KINOMEscan KdELECT service); host or cells: E. coli BL21-derived (T7 phage display) or HEK-293
# Experiment: TYK2 JH2 binding assay (KINOMEscan KdELECT competitive binding)
# Settings: TYK2 JH2 domain
# Method: Assay A: TYK2 JH2 Binding Assay
# Competitive binding studies using TKY2 JH2-domain fragments were conducted by DiscoverX using the KINOMEscan (KdELECT) platform. Kinase-tagged T7 phage strains were prepared in an E. coli host derived from the BL21 strain. E. coli were grown to log-phase and infected with […] and incubated with shaking at 32° C. until lysis. The lysates were centrifuged and filtered to remove cell debris. The remaining kinases were produced in HEK-293 cells and subsequently tagged with DNA for qPCR detection. Streptavidin-coated magnetic beads were treated with biotinylated small molecule ligands for 30 minutes at room temperature to generate affinity resins for kinase assays. The liganded beads were blocked with excess biotin and washed with blocking buffer (SeaBlock (Pierce), 1% BSA, 0.05% Tween 20, 1 mM DTT) to remove unbound ligand and to reduce non-specific binding. Binding reactions were assembled by combining kinases, liganded affinity beads, and test compounds in 1× binding buffer (20% SeaBlock, 0.17×PBS, 0.05% Tween 20, 6 mM DTT). Test compounds were prepared as 111× stocks in 100% DMSO. Kds were determined using an 11-point 3-fold compound dilution series with three DMSO control points. All compounds for Kd measurements are distributed by acoustic transfer (non-contact dispensing) in 100% DMSO. The compounds were then diluted directly into the assays such that the final concentration of DMSO was 0.9%. All reactions performed in polypropylene 384-well plate. Each was a final volume of 0.02 ml. The assay plates were incubated at room temperature with shaking for 1 hour and the affinity beads were washed with wash buffer (1×PBS, 0.05% Tween 20). The beads were then re-suspended in elution buffer (1×PBS, 0.05% Tween 20, 0.5 μM non-biotinylated affinity ligand) and incubated at room temperature with shaking for 30 minutes. The kinase concentration in the eluates was measured by qPCR.
# [1] = DiscoverX KINOMEscan KdELECT (Assay A), read-out: Biochemical TYK2_DiscoverX_JH2_BND_Kd
# [2] = KINOMEscan KdELECT (Assay A), read-out: Biochemical TYK2_JH2_Kd
# [3] = KINOMEscan KdELECT (Assay A), read-out: Biochemical TYK2_DiscoverX_JH2_BND_Kd
# T1 sequence (P29597 589-875 limits assumed): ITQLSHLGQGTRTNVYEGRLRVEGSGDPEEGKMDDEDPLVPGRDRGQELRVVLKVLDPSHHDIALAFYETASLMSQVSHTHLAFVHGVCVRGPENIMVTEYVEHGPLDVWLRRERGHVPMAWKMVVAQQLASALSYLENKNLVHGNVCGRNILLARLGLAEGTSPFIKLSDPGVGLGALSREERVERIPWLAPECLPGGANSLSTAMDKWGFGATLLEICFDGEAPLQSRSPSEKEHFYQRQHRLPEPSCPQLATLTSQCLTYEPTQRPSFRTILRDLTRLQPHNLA
Compound,Kd [2] [µM],other results
"CCOC(=O)[C@H]1C[C@@H]1C(=O)Nc1cc2c(-c3nc4cc(OC)ccc4o3)cnc(NC)c2cn1 (racemic) [Example 392, ethyl 2-((5-(5-methoxybenzo[d]oxazol-2-y1)-8-(methylamino)-2,7-naphthyridin-3-yl)carbamoyl)cyclopropane-1-carboxylate]",,Kd [1]: ≤ 0.1 µM
"CNc1ncc(N2CCCS2(=O)=O)c2cc(NC(=O)C3CC3)ncc12 [Example 58, N-(5-(1,1-dioxidoisothiazolidin-2-yl)-8-(methylamino)-2,7-naphthyridin-3-yl)cyclopropanecarboxamide]",0.1 to 1,
"CNc1ncc(-n2ccc(=O)cc2)c2cc(NC(=O)C3CC3)ncc12 [Example 60, N-(8-(methylamino)-5-(4-oxopyridin-1(4H)-yl)-2,7-naphthyridin-3-yl)cyclopropanecarboxamide]",0.1 to 1,
CNc1ncc(-c2ccccc2)c2cc(Nc3ccccc3)ncc12 [Example 102],0.1 to 1,
"CNc1ncc(C(=O)N2CCC(Oc3ccccc3)CC2)c2cc(NC(=O)C3CC3)ncc12 [Example 121, N-(8-(methylamino)-5-(4-phenoxypiperidine-1-carbonyl)-2,7-naphthyridin-3-yl)cyclopropanecarboxamide]",1 to 10,
"CNc1ncc(C(=O)N2CCCCC2)c2cc(NC(=O)C3CC3)ncc12 [Example 122, N-(8-(methylamino)-5-(piperidine-1-carbonyl)-2,7-naphthyridin-3-yl)cyclopropanecarboxamide]",0.1 to 1,
"CSc1ncc(-c2ccccc2)c2cc(NC(=O)C3CC3)ncc12 [Example 159, N-(8-(methylthio)-5-phenyl-2,7-naphthyridin-3-yl)cyclopropanecarboxamide]",0.1 to 1,
"CNc1ncc(-c2nc3cc(OC)ccc3o2)c2cc(NC(=O)C3CC3)ncc12 [Example 182, N-(5-(5-methoxybenzo[d]oxazol-2-yl)-8-(methylamino)-2,7-naphthyridin-3-yl)cyclopropanecarboxamide]",≤ 0.1,
"CNc1ncc(-c2nc3cccc(F)c3o2)c2cc(NC(=O)C3CC3)ncc12 [Example 185, N-(5-(7-fluorobenzo[d]oxazol-2-yl)-8-(methylamino)-2,7-naphthyridin-3-yl)cyclopropanecarboxamide]",≤ 0.1,
"CNc1ncc(-c2nc3cc(N4CCCC(N5CC(F)(F)C5)C4)ccn3n2)c2cc(NC(=O)C3CC3)ncc12 (stereo not drawn) [Example 190, N-(5-(7-(3-(3,3-difluoroazetidin-1-yl)piperidin-1-yl)-[1,2,4]triazolo[1,5-a]pyridin-2-yl)-8-(methylamino)-2,7-naphthyridin-3-yl)cyclopropanecarboxamide]",≤ 0.1,
"CNc1ncc(-c2nc3cc(F)ccn3n2)c2cc(NC(=O)C3CC3)ncc12 [Example 194, N-(5-(7-fluoro-[1,2,4]triazolo[1,5-a]pyridin-2-yl)-8-(methylamino)-2,7-naphthyridin-3-yl)cyclopropanecarboxamide]",≤ 0.1,
"CNc1ncc(-c2nc3cc(OCc4ccccc4)ccc3o2)c2cc(Nc3ccc(OCc4ccccc4)cn3)ncc12 [Example 430, 4-(5-(benzyloxy)benzo[d]oxazol-2-yl)-N^6-(5-(benzyloxy)pyridin-2-yl)-N^1-methyl-2,7-naphthyridine-1,6-diamine]",,Kd [1]: 0.1 to 1 µM
"CNc1ncc(-c2noc(C)n2)c2cc(NC(=O)C3CC3)ncc12 [Example 837, N-(5-(5-methyl-1,2,4-oxadiazol-3-yl)-8-(methylamino)-2,7-naphthyridin-3-yl)cyclopropanecarboxamide]",,Kd [3]: ≤ 0.1 µM
"CNc1ncc(CCc2cccc(S(C)(=O)=O)c2)c2cc(NC(=O)C3CC3)ncc12 [Example 838, N-(8-(methylamino)-5-(3-(methylsulfonyl)phenethyl)-2,7-naphthyridin-3-yl)cyclopropanecarboxamide]",,Kd [3]: ≤ 0.1 µM
"CNc1ncc(C(=O)N2CCCC2)c2cc(NC(=O)C3CC3)ncc12 [Example 840, N-(8-(methylamino)-5-(pyrrolidine-1-carbonyl)-2,7-naphthyridin-3-yl)cyclopropanecarboxamide]",,Kd [3]: 0.1 to 1 µM
"CNc1ncc(-c2nnc3n2CCC3)c2cc(NC(=O)C3CC3)ncc12 [Example 854, N-(5-(6,7-dihydro-5H-pyrrolo[2,1-c][1,2,4]triazol-3-yl)-8-(methylamino)-2,7-naphthyridin-3-yl)cyclopropanecarboxamide]",,Kd [3]: 0.1 to 1 µM
"CNc1ncc(-c2cccn3nc(Br)nc23)c2cc(NC(=O)C3CC3)ncc12 [Example 856, N-(5-(2-bromo-[1,2,4]triazolo[1,5-a]pyridin-8-yl)-8-(methylamino)-2,7-naphthyridin-3-yl)cyclopropanecarboxamide]",,Kd [3]: 0.1 to 1 µM

# Now from value to compound, other results behind:
Kd [2] [µM],Compound,other results
1 to 10,"CNc1ncc(N2Cc3cnccc3C2=O)c2cc(NC(=O)C3CC3)ncc12 [Example 59, N-(8-(methylamino)-5-(1-oxo-1,3-dihydro-2H-pyrrolo[3,4-c]pyridin-2-yl)-2,7-naphthyridin-3-yl)cyclopropanecarboxamide]",
1 to 10,"CNc1ncc(-n2ccccc2=O)c2cc(NC(=O)C3CC3)ncc12 [Example 61, N-(8-(methylamino)-5-(2-oxopyridin-1(2H)-yl)-2,7-naphthyridin-3-yl)cyclopropanecarboxamide]",
≤ 0.1,"CNc1ncc(Oc2ccccn2)c2cc(NC(=O)C3CC3)ncc12 [Example 62, N-(8-(methylamino)-5-(pyridin-2-yloxy)-2,7-naphthyridin-3-yl)cyclopropanecarboxamide]",
0.1 to 1,"CNc1ncc(-c2ccccc2)c2cc(NC3COC3)ncc12 [Example 97, N^1-methyl-N^6-(oxetan-3-yl)-4-phenyl-2,7-naphthyridine-1,6-diamine]",
1 to 10,"CNc1ncc(-c2ccccc2)c2cc(NCc3ccccc3)ncc12 [Example 99, N^6-benzyl-N^1-methyl-4-phenyl-2,7-naphthyridine-1,6-diamine]",
1 to 10,"CNc1ncc(-c2ccccc2)c2cc(NCc3ccccn3)ncc12 [Example 100, N^1-methyl-4-phenyl-N^6-(pyridin-2-ylmethyl)-2,7-naphthyridine-1,6-diamine]",
≤ 0.1,"CNc1ncc(-c2cn(C)c3ncccc23)c2cc(NC(=O)C3CC3)ncc12 [Example 107, N-(5-(1-methyl-1H-pyrrolo[2,3-b]pyridin-3-yl)-8-(methylamino)-2,7-naphthyridin-3-yl)cyclopropanecarboxamide]",
≤ 0.1,"CNc1ncc(C(N)=O)c2cc(NC(=O)C3CC3)ncc12 [Example 123, 6-(cyclopropanecarboxamido)-1-(methylamino)-2,7-naphthyridine-4-carboxamide]",
≤ 0.1,"CNc1ncc(-c2cc(-c3ccccc3)ns2)c2cc(NC(=O)C3CC3)ncc12 [Example 146, N-(8-(methylamino)-5-(3-phenylisothiazol-5-yl)-2,7-naphthyridin-3-yl)cyclopropanecarboxamide]",
≤ 0.1,"CNc1ncc(-c2nc3cc(N4CC(F)(F)C4)ccn3n2)c2cc(NC(=O)C3CC3)ncc12 [Example 189, N-(5-(7-(3,3-difluoroazetidin-1-yl)-[1,2,4]triazolo[1,5-a]pyridin-2-yl)-8-(methylamino)-2,7-naphthyridin-3-yl)cyclopropanecarboxamide]",
≤ 0.1,"CNc1ncc(-c2nc3ccc(F)cn3n2)c2cc(NC(=O)C3CC3)ncc12 [Example 191, N-(5-(6-fluoro-[1,2,4]triazolo[1,5-a]pyridin-2-yl)-8-(methylamino)-2,7-naphthyridin-3-yl)cyclopropanecarboxamide]",
≤ 0.1,"CNc1ncc(-c2nc3cccc(F)n3n2)c2cc(NC(=O)C3CC3)ncc12 [Example 192, N-(5-(5-fluoro-[1,2,4]triazolo[1,5-a]pyridin-2-yl)-8-(methylamino)-2,7-naphthyridin-3-yl)cyclopropanecarboxamide]",
≤ 0.1,"CNc1ncc(-c2nc3c(F)cccn3n2)c2cc(NC(=O)C3CC3)ncc12 [Example 193, N-(5-(8-fluoro-[1,2,4]triazolo[1,5-a]pyridin-2-yl)-8-(methylamino)-2,7-naphthyridin-3-yl)cyclopropanecarboxamide]",
